Reference: ChEMBL document CHEMBL1151855, “Synthesis of novel 1-alkyl-8-substituted-3-(3-methoxypropyl) xanthines as putative A(2B) receptor antagonists” (Bioorg Med Chem, 2009)

What was measured:
[1] = target: T1, Adenosine receptor A2b (Homo sapiens, UniProt P29275); assay: Binding affinity to human adenosine A2b receptor expressed in HEK293 cells; assay type: cell-based
T1 sequence (P29275 whole entry): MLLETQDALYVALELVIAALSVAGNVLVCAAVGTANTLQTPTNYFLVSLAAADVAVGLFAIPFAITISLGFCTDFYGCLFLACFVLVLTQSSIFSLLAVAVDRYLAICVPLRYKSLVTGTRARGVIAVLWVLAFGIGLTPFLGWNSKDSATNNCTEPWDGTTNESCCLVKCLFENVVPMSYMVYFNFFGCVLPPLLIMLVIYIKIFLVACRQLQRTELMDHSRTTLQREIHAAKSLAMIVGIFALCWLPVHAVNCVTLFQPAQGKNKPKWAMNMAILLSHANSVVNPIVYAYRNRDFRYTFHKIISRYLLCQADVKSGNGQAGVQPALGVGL

[2] = target: T2, Adenosine receptor A2a (Homo sapiens, UniProt P29274); assay: Binding affinity to human adenosine A2a receptor expressed in human HeLa cells; assay type: cell-based
[3] = target: T3, Adenosine receptor A1 (Rattus norvegicus) (UniProt P25099); assay: Displacement of [3H]DPCPX from rat cortex adenosine A1 receptor at 1 uM
T3 sequence (whole entry): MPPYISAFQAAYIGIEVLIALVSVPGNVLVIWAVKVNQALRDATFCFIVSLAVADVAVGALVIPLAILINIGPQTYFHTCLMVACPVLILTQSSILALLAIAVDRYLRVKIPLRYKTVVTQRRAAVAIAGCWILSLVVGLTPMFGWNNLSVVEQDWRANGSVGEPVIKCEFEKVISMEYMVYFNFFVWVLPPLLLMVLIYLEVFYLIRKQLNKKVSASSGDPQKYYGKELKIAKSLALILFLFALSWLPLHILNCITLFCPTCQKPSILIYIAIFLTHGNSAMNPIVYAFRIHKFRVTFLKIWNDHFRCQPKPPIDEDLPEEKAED

[4] = target: T4, Adenosine receptor A3 (Homo sapiens) (UniProt P0DMS8); assay: Displacement of [3H]NECA from human adenosine A3 receptor expressed in human HeLa cells at 1 uM; assay type: cell-based
T4 sequence (whole entry): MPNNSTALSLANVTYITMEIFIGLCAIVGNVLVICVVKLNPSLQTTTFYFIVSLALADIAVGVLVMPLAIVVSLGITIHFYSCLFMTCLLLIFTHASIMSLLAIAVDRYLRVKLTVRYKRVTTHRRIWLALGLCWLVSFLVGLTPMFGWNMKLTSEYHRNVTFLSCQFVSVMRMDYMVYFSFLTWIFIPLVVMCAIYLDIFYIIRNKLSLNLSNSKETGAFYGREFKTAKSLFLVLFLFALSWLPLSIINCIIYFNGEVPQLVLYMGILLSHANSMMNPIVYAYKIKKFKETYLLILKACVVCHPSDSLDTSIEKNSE

[5] = target: T5, Adenosine receptor A3 (Homo sapiens, UniProt P0DMS8); assay: Binding affinity to human adenosine A3 receptor expressed in human HeLa cells; assay type: cell-based
T5 sequence (P0DMS8 whole entry): T4 sequence (whole entry)

[6] = target: T6, Adenosine receptor A1 (Rattus norvegicus, UniProt P25099); assay: Binding affinity to rat cortex adenosine A1 receptor
T6 sequence (P25099 whole entry): T3 sequence (whole entry)

[7] = target: T2, Adenosine receptor A2a; assay: Displacement of [3H]ZM241385 from human adenosine A2a receptor expressed in human HeLa cells at 1 uM; assay type: cell-based
[8] = target: T7, Adenosine receptor A2b (Homo sapiens) (UniProt P29275); assay: Displacement of [3H]DPCPX from human adenosine A2b receptor expressed in HEK293 cells at 1 uM; assay type: cell-based
T7 sequence (whole entry): T1 sequence (P29275 whole entry)

T2 sequence (P29274 whole entry): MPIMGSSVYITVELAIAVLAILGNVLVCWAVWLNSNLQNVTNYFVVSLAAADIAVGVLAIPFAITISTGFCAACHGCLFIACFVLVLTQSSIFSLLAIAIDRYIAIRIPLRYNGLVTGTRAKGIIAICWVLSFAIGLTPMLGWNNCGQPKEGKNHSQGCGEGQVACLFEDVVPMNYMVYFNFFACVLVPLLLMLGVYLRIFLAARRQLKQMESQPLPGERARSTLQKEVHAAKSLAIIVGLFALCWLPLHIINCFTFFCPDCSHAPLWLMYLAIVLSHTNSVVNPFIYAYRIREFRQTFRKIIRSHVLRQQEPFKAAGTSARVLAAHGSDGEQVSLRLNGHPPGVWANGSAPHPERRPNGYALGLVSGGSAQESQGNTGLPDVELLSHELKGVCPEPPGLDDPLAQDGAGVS

Compound | Ki [1] | Ki [2] | Activity [7] | Activity [8] | also measured
CCn1c(=O)c2[nH]c(-c3ccc(OCC(=O)Nc4ccccn4)cc3)nc2n(CCCOC)c1=O | 15.5 nM | 170 nM | – | – | Activity [3]: 2%; Activity [4]: 69%
CCn1c(=O)c2[nH]c(-c3ccc(OCC(=O)Nc4ccc(C(C)=O)cc4)cc3)nc2n(CCCOC)c1=O | 11.7 nM | 148 nM | – | – | Ki [5]: 708 nM; Activity [3]: 68%
CCn1c(=O)c2[nH]c(-c3cccs3)nc2n(CCCOC)c1=O | 126 nM | 219 nM | – | – | –
CCn1c(=O)c2[nH]c(-c3ccc(OCC(=O)Nc4ccc(O)cc4)cc3)nc2n(CCCOC)c1=O | 15.5 nM | 417 nM | – | – | Ki [6]: 174 nM; Activity [4]: 65%
CCn1c(=O)c2[nH]c(Cc3ccco3)nc2n(CCCOC)c1=O | – | – | 11% | 17% | –
CCn1c(=O)c2[nH]c(-c3ccc(-c4ccccc4)cc3)nc2n(CCCOC)c1=O | 70.8 nM | 525 nM | – | – | –
CCn1c(=O)c2[nH]c(-c3ccc(OCC(=O)Nc4nc5ccccc5[nH]4)cc3)nc2n(CCCOC)c1=O | 93.3 nM | 204 nM | – | – | –
CCCn1c(=O)c2[nH]c(CCCc3ccccc3)nc2n(CCCOC)c1=O | – | – | 26% | 70% | –
COCCCn1c(=O)n(CCOC)c(=O)c2[nH]c(-c3ccccc3)nc21 | – | – | 54% | 70% | –
CCSCCn1c(=O)c2[nH]c(-c3ccco3)nc2n(CCCOC)c1=O | 490 nM | 5010 nM | – | – | –
CC[S+]([O-])CCn1c(=O)c2[nH]c(Cc3ccco3)nc2n(CCCOC)c1=O (configuration not stated) | – | – | 12% | 0% | –
CCCn1c(=O)c2[nH]c(-c3ccccc3)nc2n(CCCOC)c1=O | 324 nM | 339 nM | – | – | –
CCn1c(=O)c2c(nc(-c3ccc(-c4ccccc4)cc3)n2C)n(CCCOC)c1=O | – | – | 5% | 6% | –
CCCn1c(=O)c2[nH]c(-c3ccc(-c4ccccc4)cc3)nc2n(CCCOC)c1=O | – | – | 14% | 66% | –
CCn1c(=O)c2c(nc(-c3ccco3)n2C)n(CCCOC)c1=O | – | – | 14% | 1% | –
CCS(=O)(=O)CCn1c(=O)c2[nH]c(-c3ccccc3)nc2n(CCCOC)c1=O | – | – | 20% | 0% | –
CCSCCn1c(=O)c2[nH]c(Cc3ccco3)nc2n(CCCOC)c1=O | 2000 nM | – | 1% | – | –
CCCCCn1c(=O)c2[nH]c(-c3ccccc3)nc2n(CCCOC)c1=O | – | – | 0% | 49% | –
CCn1c(=O)c2[nH]c(-c3ccc(OCC(=O)Nc4ccon4)cc3)nc2n(CCCOC)c1=O | 20.9 nM | 214 nM | – | – | Ki [6]: 95.5 nM; Ki [5]: 933 nM

Compound | Ki [1] | Ki [2] | Activity [7] | Activity [8] | also measured
CCn1c(=O)c2[nH]c(-c3ccc(OCC(=O)NC4CCCC4)cc3)nc2n(CCCOC)c1=O | 77.6 nM | 95.5 nM | – | – | –
CCn1c(=O)c2[nH]c(-c3ccc(OCC(=O)Nc4ccc(Br)cc4)cc3)nc2n(CCCOC)c1=O | 2.88 nM | 97.7 nM | – | – | Ki [6]: 100 nM; Ki [5]: 1290 nM
CCn1c(=O)c2[nH]c(-c3ccc(OCC(=O)Nc4ccc(C#N)cc4)cc3)nc2n(CCCOC)c1=O | 9.12 nM | 112 nM | – | – | Ki [6]: 676 nM; Ki [5]: 398 nM
CC[S+]([O-])CCn1c(=O)c2[nH]c(-c3ccccc3)nc2n(CCCOC)c1=O (configuration not stated) | – | – | 18% | 11% | –
CCn1c(=O)c2[nH]c(-c3ccccc3)nc2n(CCCOC)c1=O | – | – | 49% | 67% | –
CCCn1c(=O)c2[nH]c(-c3cccs3)nc2n(CCCOC)c1=O | – | – | 25% | 77% | –
COCCCn1c(=O)n(CC(C)C)c(=O)c2[nH]c(-c3ccccc3)nc21 | – | – | 25% | 30% | –
CCCn1c(=O)c2[nH]c(C3CCCC3)nc2n(CCCOC)c1=O | – | – | 84% | 62% | –
CCn1c(=O)c2[nH]c(-c3ccco3)nc2n(CCCOC)c1=O | 138 nM | 490 nM | – | – | –
CCn1c(=O)c2[nH]c(-c3ccc(OCC(=O)Nc4ccccc4)cc3)nc2n(CCCOC)c1=O | 3.02 nM | 87.1 nM | – | – | Ki [6]: 36.3 nM; Ki [5]: 2510 nM
CCSCCn1c(=O)c2[nH]c(-c3ccccc3)nc2n(CCCOC)c1=O | – | – | 8% | 41% | –
CCn1c(=O)c2[nH]c(-c3ccc(OCC(=O)Nc4ccc(F)cc4)cc3)nc2n(CCCOC)c1=O | 3.02 nM | 56.2 nM | – | – | Ki [6]: 20.9 nM; Ki [5]: 955 nM
CCn1c(=O)c2[nH]c(-c3ccc(OCC(=O)Nc4cccnc4)cc3)nc2n(CCCOC)c1=O | 33.9 nM | 759 nM | – | – | Ki [6]: 162 nM; Ki [5]: 95.5 nM
CCn1c(=O)c2[nH]c(-c3ccc(OCC(=O)Nc4ccc(N(C)C)cc4)cc3)nc2n(CCCOC)c1=O | 174 nM | 1780 nM | – | – | Ki [6]: 871 nM; Ki [5]: 209 nM
CCn1c(=O)c2[nH]c(-c3ccc[nH]3)nc2n(CCCOC)c1=O | 85.1 nM | 209 nM | – | – | –
CCS(=O)(=O)CCn1c(=O)c2[nH]c(Cc3ccco3)nc2n(CCCOC)c1=O | – | – | 6% | 15% | –
CCCn1c(=O)c2[nH]c(-c3ccc[nH]3)nc2n(CCCOC)c1=O | 148 nM | 398 nM | – | – | –
CCn1c(=O)c2[nH]c(-c3ccc(OCC(=O)N4CCc5ccccc5C4)cc3)nc2n(CCCOC)c1=O | 49 nM | 229 nM | – | – | Ki [6]: 100 nM
CCOCCn1c(=O)c2[nH]c(-c3ccccc3)nc2n(CCCOC)c1=O | – | – | 51% | 21% | –
